Laboratory results from patent publication US11795457B2, “Compositions and methods for treatment of Friedreich's Ataxia” (The Board of Regents of The University of Texas System, priority 2014, dated 2023).
Where two headings read alike, the source gives them in different places. Oligonucleotides are written 5' to 3', each unit as a sugar letter and its base; * is a phosphorothioate linkage, no mark a phosphodiester; rarer units and linkages stand in square brackets, end groups in braces. Plain capitals give the bases only. l = locked nucleic acid (LNA); d = 2'-deoxy (DNA)

Legend:
Tm of siRNA duplex = assay type: physicochemical
FXN protein = FXN protein expression by western blot in FRDA patient-derived fibroblast cells; assay type: cell-based, human; conditions: GM03816 cells; for FXN protein expression, LNAs: 12.5 nM, day 4 (FIGS. 4B-E)
Description: (§1) Tissue culture and transfection of synthetic nucleic acids. Fibroblast cells (Coriell Institute, GM03816 and GM02513) were cultured in minimum essential medium (MEM) supplemented with 10% FBS and 1% NEAA. All cells were grown at 37° C. in 5% Co2. Lipofectamine RNAiMAX (Invitrogen) was used to transfect siRNAs or LNA following the manufacturer's recommended protocol in OptiMEM low serum medium (Invitrogen). Growth media was changed to full medium after 24 h. Transfected cells were harvested 72 h after transfection for RNA extraction and qPCR analyses, and 96 h after transfection for western blot analysis. Sequences of siRNAs and RNAs used in these studies are listed in Table S1 and Table S2, respectively.
Western blot analysis. Cell extracts were prepared using lysis buffer supplemented with 1% Protease Inhibitor Cocktail Set I (Calbiochem) as described previously (Punga & Buhler, 2010). Protein was separated on 4-20% gradient or 15% SDS-PAGE TGX pre-cast gels (BioRad). After gel electrophoresis, proteins were transferred to nitrocellulose membrane (Hybond-C Extra, GE Healthcare Life Sciences) at 100 V for 45-60 min. Membranes were blocked for 30 min at room temperature with 5% milk protein in PBS+0.05% TWEEN-20 (PBST).
Blocked membranes were incubated with the primary antibodies at 4° C. in PBST and 5% milk with rocking overnight: anti-FXN at 1:300 (Abcam, ab110328), anti-tubulin at 1:6000-10000 (Sigma-Aldrich, T5201). After primary antibody incubation, membranes were washed 3 times for 5 min at room temperature with PBST then incubated for 30-45 min at room temperature with HRP-conjugated anti-mouse (Jackson Laboratories, 715-035-150) in PBST+5% milk. Membranes were washed again 3× for 15 min in PBST at room temperature, then protein bands visualized using SuperSignal West Pico Chemiluminescent Substrate (Thermo Scientific). For quantification of protein levels from Western blots of cellular fractions, films were scanned and bands quantified using ImageJ.
HDAC inhibitor and mRNA stability assay. Histone deacetylase inhibitor BML-210 (Abcam) (5 μM) was applied to FRDA fibroblast cells (GM03816) by following the procedure described in Herman et al (2006)^27. Cells were collected for qPCR and Western blot analyses as mentioned above. For mRNA stability assay, cells were transfected with siGAA or CM as above, and 5 μg/mL actinomycin D (Sigma) was added with fresh media 3 day after transfection, and cells were collected at the indicated time points for RNA extraction and qPCR analysis.

[1] = test system: interferon responsive genes; test: qPCR of interferon responsive genes (off-target); assay type: cell-based, human; conditions: GM03816 cells, 25 nM, 3 days after transfection, compared with CM control
Description: as §1
Quantitative PCR. Identical volumes of RNA (representing approximately the same number of cells and ranging from 1-2 μg of RNA) were treated with 2 units of DNase I (Worthington) in DNase I buffer (10 mM Tris-HCl, pH 7.0, 10 mM NaCl, 2 mM MgCl2, 0.5 mM CaCl2)) for 15 min at room temperature to degrade any genomic DNA contamination. Afterwards, DNase I heat-inactivated at 75° C. for 10 min. Treated RNAs were reverse-transcribed using the High Capacity cDNA Reverse Transcription Kit (Applied Biosystems). Quantitative PCR (qPCR) was performed using SYBR Supermix (Biorad) with ˜50 ng of cDNA as template. Data were normalized relative to measured HPRT levels.

FXN = FXN expression in FRDA patient-derived cells, mRNA or protein not specified; assay type: cell-based, human; conditions: GM03816 cells, 25 nM (FIG. 3B)
Description: as §1

frataxin protein = conditions: patients, daily oral administration, cited from earlier work
FXN mRNA = FXN mRNA expression by quantitative PCR in FRDA patient-derived fibroblast cells; assay type: cell-based, human; conditions: GM03816 cells, 5 μM, averaged quadruplicate experiments (FIG. 2B)
Description: Tissue culture and transfection of synthetic nucleic acids. Fibroblast cells (Coriell Institute, GM03816 and GM02513) were cultured in minimum essential medium (MEM) supplemented with 10% FBS and 1% NEAA. All cells were grown at 37° C. in 5% Co2. Lipofectamine RNAiMAX (Invitrogen) was used to transfect siRNAs or LNA following the manufacturer's recommended protocol in OptiMEM low serum medium (Invitrogen). Growth media was changed to full medium after 24 h. Transfected cells were harvested 72 h after transfection for RNA extraction and qPCR analyses, and 96 h after transfection for western blot analysis. Sequences of siRNAs and RNAs used in these studies are listed in Table S1 and Table S2, respectively. Quantitative PCR. Identical volumes of RNA (representing approximately the same number of cells and ranging from 1-2 μg of RNA) were treated with 2 units of DNase I (Worthington) in DNase I buffer (10 mM Tris-HCl, pH 7.0, 10 mM NaCl, 2 mM MgCl2, 0.5 mM CaCl2)) for 15 min at room temperature to degrade any genomic DNA contamination. Afterwards, DNase I heat-inactivated at 75° C. for 10 min. Treated RNAs were reverse-transcribed using the High Capacity cDNA Reverse Transcription Kit (Applied Biosystems). Quantitative PCR (qPCR) was performed using SYBR Supermix (Biorad) with ˜50 ng of cDNA as template. Data were normalized relative to measured HPRT levels. […]

[2] = test system: histone H3 and H4 acetylation, FXN mRNA and protein; conditions: lymphoid cells or primary lymphocytes; cited from earlier work

Q: With “siAGA: duplex RNA: ss AGAAGAAGAAGAAGAAGAAdTdT (SEQ ID NO: 11), as UUCUUCUUCUUCUUCUUCUdTdT (SEQ ID NO: 12) (sense AGAAGAAGAAGAAGAAGAANN; antisense UUCUUCUUCUUCUUCUUCUNN; dTdT overhangs; modified_base (20)..(21) n = thymidine; (20)..(21) n is a, c, g, t or u)” as the compound, how does the Tm for duplex (Tm of siRNA duplex) read?
A: 64.3 ^+C

Q: For “siAAG5mm: similar to siAAG but has five mismatches: ss AACAATAATACGCAGAAGAdTdT (SEQ ID NO: 17), as SEQ ID NO: 18 (sense AACAATAATACGCAGAAGANN; antisense UCUUCUGCGUAUUAUUGUUNN; dTdT overhangs; modified_base (20)..(21) n = thymidine; (20)..(21) n is a, c, g, t or u) [reference compound]”, which Tm for duplex (Tm of siRNA duplex) is on record?
A: 63.24 ^+C

Q: For “siGAA: duplex RNA: ss GAAGAAGAAGAAGAAGAAGdTdT (SEQ ID NO: 1), as CUUCUUCUUCUUCUUCUUCdTdT (SEQ ID NO: 9) (sense GAAGAAGAAGAAGAAGAAGNN; antisense CUUCUUCUUCUUCUUCUUCNN; dTdT overhangs; modified_base (20)..(21) n = thymidine; (20)..(21) n is a, c, g, t or u)”, which “FXN protein expression (dose response profile)” value (FXN protein; day 4 (FIG. 1F)) is on record?
A: upregulation of FXN protein expression

Q: And the Tm for duplex (Tm of siRNA duplex)?
A: 65.64 ^+C

Q: And the “mRNA expression of interferon responsive genes” value [1]?
A: does not induce expression of interferon responsive genes

Q: For “siExon2: duplex siRNA that targets FXN exon: ss GAGUGUCUAUUUGAUGAAUdTdT (SEQ ID NO: 13), as SEQ ID NO: 14 (sense GAGUGUCUAUUUGAUGAAUNN; antisense AUUCAUCAAAUAGACACUCNN; dTdT overhangs; modified_base (20)..(21) n = thymidine; (20)..(21) n is a, c, g, t or u) [reference compound]”, which Tm for duplex (Tm of siRNA duplex) is on record?
A: 64.53 ^+C

Q: Which results are given for “siGAA9,10mm: anti-GAA duplex RNA with central mismatches on both strands: ss GAAGAAGAUCAAGAAGAAGdTdT (SEQ ID NO: 19), as CUUCUUCUUAGUCUUCUUCdTdT (SEQ ID NO: 20) (sense GAAGAAGAUCAAGAAGAAGNN; antisense CUUCUUCUUAGUCUUCUUCDTDT; dTdT overhangs; modified_base (20)..(21) n = thymidine; (20)..(21) n is a, c, g, t or u)”?
A: Activation of FXN expression by duplex with central mismatches (FXN; listed as siGAA 9.10 mm): activates FXN expression at a level similar to the analogous fully complementary duplex RNA; Activation of FXN expression by duplex with central mismatches (FXN; listed as siGAA9.10 mm): activated FXN expression as well as fully complementary duplexes siGAA or siAAG; Tm for duplex (Tm of siRNA duplex): 54.4 ^+C

Q: Which “Increase of frataxin protein concentration” value (frataxin protein; 3.8 g) does the source give for NC(=O)c1cccnc1 [nicotinamide] here?
A: 1.5 times

Q: What about the “Increase of frataxin protein concentration” value (frataxin protein; 7-5 g) of the same compound?
A: doubling

Q: Which “FXN protein expression, LNAs” value (FXN protein) does the source give for “PS-LNA12: LNA with PS backbone complementary to antisense RNA, AAGAAGAAGAAGAAGAAGA (SEQ ID NO: 34) (dA*dA*lG*dA*dA*lG*dA*dA*lG*dA*dA*lG*dA*dA*lG*dA*dA*lG*dA)” here?
A: inert

Q: Which “FXN mRNA levels” value (FXN mRNA) does the source give for Nc1ccccc1NC(=O)CCCCCCC(=O)Nc1ccccc1 [BML210] here?
A: did not reveal a significant increase

Q: And the “Acetylation of histone H3 and H4 and FXN mRNA and protein” value [2]?
A: increased acetylation of histone H3 and H4 leading to upregulation of FXN mRNA and protein

Q: What about the FXN protein levels (FXN protein; 5 μM, averaged quadruplicate experiments (FIG. 2C)) of the same compound?
A: did not reveal a significant increase

Q: Which Tm for duplex (Tm of siRNA duplex) does the source give for “siAAG: duplex RNA: ss AAGAAGAAGAAGAAGAAGAdTdT (SEQ ID NO: 2), as UCUUCUUCUUCUUCUUCUUdTdT (SEQ ID NO: 10) (sense AAGAAGAAGAAGAAGAAGANN; antisense UCUUCUUCUUCUUCUUCUUNN; dTdT overhangs; modified_base (20)..(21) n = thymidine; (20)..(21) n is a, c, g, t or u)” here?
A: 64.67 ^+C

Q: For “scramble: duplex RNA in which the sequences of siGAA and siAAG are mixed: ss GAGAAAGAGAAAAGGAAAGdTdT (SEQ ID NO: 15), as SEQ ID NO: 16 (sense GAGAAAGAGAAAAGGAAAGNN; antisense CUUUCCUUUUCUCUUUCUCNN; dTdT overhangs; modified_base (20)..(21) n = thymidine; (20)..(21) n is a, c, g, t or u) [reference compound]”, which Tm for duplex (Tm of siRNA duplex) is on record?
A: 66.13 ^+C

Q: For “siExon3: positive control for transfection efficiency targeting exon 3 of FXN: ss GACCACCUAUGAAAGACUAdTdT (SEQ ID NO: 21), as SEQ ID NO: 22 (sense GACCACCUAUGAAAGACUANN; antisense UAGUCUUUCAUAGGUGGUCNN; dTdT overhangs; modified_base (20)..(21) n = thymidine; (20)..(21) n is a, c, g, t or u) [reference compound]”, which Tm for duplex (Tm of siRNA duplex) is on record?
A: 73.65 ^+C

Q: Which “FXN protein expression, LNAs” value (FXN protein) does the source give for “PS-LNA13: LNA with PS backbone complementary to antisense RNA, AGAAGAAGAAGAAGAAGAA (SEQ ID NO: 35) (lA*dG*lA*lA*dG*lA*lA*dG*lA*lA*dG*lA*lA*dG*lA*lA*dG*lA*lA)” here?
A: inert

Q: For “PS-LNA11: LNA with PS backbone complementary to antisense RNA, GAAGAAGAAGAAGAAGAAG (SEQ ID NO: 33) (dG*lA*lA*dG*lA*lA*dG*lA*lA*dG*lA*lA*dG*lA*lA*dG*lA*lA*dG)”, which “FXN protein expression, LNAs” value (FXN protein) is on record?
A: inert
